Experimental data as given in PubChem BioAssay AID232 (DTP/NCI, 2004).
Several values for one entry are separate records, joined by “and”; a condition that tells them apart may be missing. Equal entries are not always repeated. Inconclusive results and toxic doses are left out. Numbered stars: 1 amine (or outer) side, 2 acyl side, 3 side chain; on linkers, the order of the positions; unused ones are H or OH. Bridge positions count the residues as written; N and C are the ends. Square brackets hold non-standard residues; d marks the D form. Peptide text beside a SMILES is read from it. I, II: the chains in the order shown. Actinocin(9to1) = Cc1c2oc3c(C)ccc(C(=O)[*:1])c3nc-2c(C(=O)[*:2])c(N)c1=O; aThr = C[C@H](O)[C@H](N)C(=O)O; NMeV = CN[C@H](C(=O)O)C(C)C; Sar = CNCC(=O)O

Tested on: Gardner 6C3HED lymphosarcoma ip, C3AKF1 mice, survival T/C
Experiment: NCI In Vivo Anticancer Drug Screen. Data for tumor model Lymphosarcoma Gardner 6C3HED (intraperitoneal) in C3AKF1 (CHKRF1) mice
Conditions: endpoint: survival time, mean or median, higher = longer survival
Method: The antitumor activity of compounds was measured in mice bearing transplantable tumors. Survival or tumor size were measured and the results are expressed as the measurement made in the treated group (T) divided by the measurement made in the vehicle treated control group (C). The tumor model used in this assay is Lymphosarcoma Gardner 6C3HED (intraperitoneal) in C3AKF1 (CHKRF1) mice

[1] = dose: 0.13 mg/kg/injection, schedule: Q01DX010 (ip), vehicle: saline
[2] = dose: 40.0 mg/kg/injection, schedule: Q01DX010 (ip), vehicle: saline
[3] = dose: 12.5 mg/kg/injection, schedule: Q01DX010 (ip), vehicle: saline
[4] = dose: 2.0 mg/kg/injection, schedule: Q01DX010 (ip), vehicle: saline
[5] = dose: 4.0 mg/kg/injection, schedule: Q01DX010 (ip), vehicle: saline
[6] = dose: 8.0 mg/kg/injection, schedule: Q01DX010 (ip), vehicle: saline
[7] = dose: 16.0 mg/kg/injection, schedule: Q01DX010 (ip), vehicle: saline
[8] = dose: 25.0 mg/kg/injection, schedule: Q01DX010 (ip), vehicle: saline
[9] = dose: 50.0 mg/kg/injection, schedule: Q01DX010 (ip), vehicle: saline
[10] = dose: 20.0 mg/kg/injection, schedule: Q01DX010 (ip), vehicle: saline
[11] = dose: 2.5 mg/kg/injection, schedule: Q01DX010 (ip), vehicle: saline
[12] = dose: 5.0 mg/kg/injection, schedule: Q01DX010 (ip), vehicle: saline
[13] = dose: 10.0 mg/kg/injection, schedule: Q01DX010 (ip), vehicle: saline
[14] = dose: 1.0 mg/kg/injection, schedule: Q01DX010 (ip), vehicle: saline
[15] = dose: 125.0 mg/kg/injection, schedule: Q01DX010 (ip), vehicle: saline
[16] = dose: 500.0 mg/kg/injection, schedule: Q01DX010 (ip), vehicle: saline

SMILES: CC[C@]1(O)C[C@H]2CN(CCc3c([nH]c4ccccc34)[C@@](C(=O)OC)(c3cc4c(cc3OC)N(C=O)[C@H]3[C@@](O)(C(=O)OC)[C@H](OC(C)=O)[C@]5(CC)C=CCN6CC[C@]43[C@@H]65)C2)C1
- T/C (dose: 0.12 mg/kg/injection, schedule: Q01DX010 (ip), vehicle: saline): 250 % of control
- T/C [1]: 285 % of control and 300 % of control

SMILES: C[n+]1c2ccccc2nc2c(N)cc(N)cc21
- T/C (dose: 12.0 mg/kg/injection, schedule: Q01DX010 (ip), vehicle: saline): 113 % of control
- T/C (dose: 18.0 mg/kg/injection, schedule: Q01DX010 (ip), vehicle: saline): 122 % of control
- T/C [2]: 113 % of control

SMILES: CCCNc1ncnc2[nH]ncc12
- T/C (dose: 3.13 mg/kg/injection, schedule: Q01DX010 (ip), vehicle: saline): 86 % of control and 90 % of control
- T/C (dose: 6.25 mg/kg/injection, schedule: Q01DX010 (ip), vehicle: saline): 90 % of control
- T/C [3]: 90 % of control and 95 % of control

SMILES: O[C@H](CN1CC1)[C@@H](O)CN1CC1
- T/C (dose: 62.5 micrograms/kg/injection, schedule: Q01DX010 (ip), vehicle: saline): 96 % of control
- T/C (dose: 125.0 micrograms/kg/injection, schedule: Q01DX010 (ip), vehicle: saline): 92 % of control
- T/C (dose: 250.0 micrograms/kg/injection, schedule: Q01DX010 (ip), vehicle: saline): 155 % of control
- T/C (dose: 500.0 micrograms/kg/injection, schedule: Q01DX010 (ip), vehicle: saline): 151 % of control

SMILES: CC(=O)O[C@]1(C(C)=O)CC[C@H]2[C@@H]3C[C@H](C)C4=CC(=O)C=C[C@]4(C)[C@@]3(F)[C@@H](O)C[C@@]21C
- T/C (dose: 12.5 mg/kg/injection, schedule: Q01DX010 (sc), vehicle: steriod suspending solution): 111 % of control
- T/C (dose: 25.0 mg/kg/injection, schedule: Q01DX010 (sc), vehicle: steriod suspending solution): 92 % of control
- T/C (dose: 50.0 mg/kg/injection, schedule: Q01DX010 (sc), vehicle: steriod suspending solution): 88 % of control

SMILES: O=C(Nc1ccc(NC2=NCCN2)cc1)c1ccc(C(=O)Nc2ccc(NC3=NCCN3)cc2)cc1
- T/C [4]: 180 % of control
- T/C [5]: 195 % of control and 265 % of control
- T/C [6]: 190 % of control
- T/C [7]: 115 % of control

SMILES: O=C1C(NC(=O)C2CCCCC2)=C(N2CC2)C(=O)C(NC(=O)C2CCCCC2)=C1N1CC1
- T/C [8]: 92 % of control
- T/C [9]: 92 % of control

SMILES: Cc1c2oc3c(C)ccc(C(=O)N[C@@H]4C(=O)N[C@H](C(C)C)C(=O)N5CCC[C@H]5C(=O)N(C)CC(=O)N(C)[C@@H](C(C)C)C(=O)O[C@H]4C)c3nc-2c(C(=O)N[C@@H]2C(=O)N[C@H](C(C)C)C(=O)N3CCC[C@H]3C(=O)N(C)CC(=O)N(C)[C@@H](C(C)C)C(=O)O[C@H]2C)c(N)c1=O (I: [aThr][dV]P[Sar][NMeV] / II: [aThr][dV]P[Sar][NMeV]; ester I:1-I:C, II:1-II:C; linker I:N-II:N via Actinocin(9to1))
- T/C (dose: 0.01 mg/kg/injection, schedule: Q01DX010 (ip), vehicle: acid diluted with saline): 100 % of control and 110 % of control
- T/C (dose: 0.03 mg/kg/injection, schedule: Q01DX010 (ip), vehicle: acid diluted with saline): 120 % of control

SMILES: N#CCSc1ncnc2nc[nH]c12
- T/C (dose: 15.0 mg/kg/injection, schedule: Q01DX010 (ip), vehicle: saline): 100 % of control and 111 % of control
- T/C (dose: 30.0 mg/kg/injection, schedule: Q01DX010 (ip), vehicle: saline): 100 % of control
- T/C (dose: 60.0 mg/kg/injection, schedule: Q01DX010 (ip), vehicle: saline): 95 % of control and 114 % of control
- T/C (dose: 120.0 mg/kg/injection, schedule: Q01DX010 (ip), vehicle: saline): 92 % of control and 95 % of control

SMILES: C=CC(CN1CC1)OC(C)=O (configuration not stated)
- T/C [4]: 92 % of control

SMILES: O=c1cnn(C2OC(CO)C(O)C2O)c(=O)[nH]1 (configuration not stated)
- T/C (dose: 200.0 mg/kg/injection, schedule: Q01DX010 (ip), vehicle: saline): 105 % of control and 115 % of control
- T/C (dose: 400.0 mg/kg/injection, schedule: Q01DX010 (ip), vehicle: saline): 115 % of control
- T/C (dose: 800.0 mg/kg/injection, schedule: Q01DX010 (ip), vehicle: saline): 110 % of control and 120 % of control
- T/C (dose: 1600.0 mg/kg/injection, schedule: Q01DX010 (ip), vehicle: saline): 95 % of control

SMILES: OCC1OC(n2cnc3c(=S)nc[nH]c32)C(O)C1O (configuration not stated)
- T/C [10]: 90 % of control and 95 % of control
- T/C [2]: 86 % of control
- T/C (dose: 80.0 mg/kg/injection, schedule: Q01DX010 (ip), vehicle: saline): 90 % of control
- T/C (dose: 160.0 mg/kg/injection, schedule: Q01DX010 (ip), vehicle: saline): 86 % of control and 90 % of control

SMILES: O=C(Nc1ccc(C2=NCCN2)cc1)c1ccc(C(=O)Nc2ccc(C3=NCCN3)cc2)c(Cl)c1
- T/C (dose: 2.0 mg/kg/injection, schedule: Q01DX010 (ip), vehicle: other): 116 % of control
- T/C (dose: 4.0 mg/kg/injection, schedule: Q01DX010 (ip), vehicle: other): 150 % of control and 159 % of control
- T/C (dose: 8.0 mg/kg/injection, schedule: Q01DX010 (ip), vehicle: other): 225 % of control and 245 % of control
- T/C (dose: 16.0 mg/kg/injection, schedule: Q01DX010 (ip), vehicle: other): 216 % of control and 268 % of control
- T/C (dose: 32.0 mg/kg/injection, schedule: Q01DX010 (ip), vehicle: other): 191 % of control and 200 % of control

SMILES: Oc1cc(CN(CCCl)CCCl)c(O)cc1CN(CCCl)CCCl
- T/C (dose: 0.63 mg/kg/injection, schedule: Q01DX010 (ip), vehicle: saline): 113 % of control
- T/C [11]: 168 % of control
- T/C [12]: 91 % of control and 122 % of control

SMILES: S=P(N1CCOCC1)(N1CC1)N1CC1
- T/C [11]: 91 % of control and 100 % of control (2×)
- T/C [12]: 91 % of control and 92 % of control and 104 % of control
- T/C [13]: 89 % of control and 91 % of control and 104 % of control
- T/C [10]: 108 % of control and 121 % of control

SMILES: CCN(CC)c1ccc2cc3ccc(=[N+](CC)CC)cc-3oc2c1
- T/C [14]: 100 % of control and 109 % of control
- T/C [4]: 100 % of control and 122 % of control
- T/C [5]: 100 % of control and 104 % of control
- T/C [6]: 95 % of control and 100 % of control

SMILES: N#[N+]c1cnc([O-])[nH]c1=O
- T/C [11]: 175 % of control
- T/C [12]: 158 % of control
- T/C [13]: 162 % of control

SMILES: CS(=O)(=O)OCCN(CCOS(C)(=O)=O)c1ccc(N=O)cc1
- T/C [14]: 107 % of control

SMILES: CCN(CC)CCNc1ccc(C)c2sc3ccccc3c(=O)c12
- T/C [3]: 100 % of control
- T/C [8]: 114 % of control
- T/C [9]: 91 % of control and 114 % of control

SMILES: CN(C)c1nc(N(C)C)nc(N(C)C)n1
- T/C (dose: 18.8 mg/kg/injection, schedule: Q01DX010 (ip), vehicle: saline): 104 % of control
- T/C (dose: 37.5 mg/kg/injection, schedule: Q01DX010 (ip), vehicle: saline): 104 % of control
- T/C (dose: 75.0 mg/kg/injection, schedule: Q01DX010 (ip), vehicle: saline): 95 % of control and 100 % of control
- T/C (dose: 150.0 mg/kg/injection, schedule: Q01DX010 (ip), vehicle: saline): 100 % of control and 104 % of control

SMILES: CCOC(N)=O
- T/C [15]: 91 % of control and 100 % of control
- T/C [16]: 95 % of control

SMILES: O=c1cn[nH]c(=O)[nH]1
- T/C (dose: 62.5 mg/kg/injection, schedule: Q01DX010 (ip), vehicle: saline): 100 % of control and 104 % of control
- T/C [15]: 104 % of control
- T/C (dose: 250.0 mg/kg/injection, schedule: Q01DX010 (ip), vehicle: saline): 90 % of control and 95 % of control
- T/C [16]: 90 % of control

SMILES: C1CN1c1nc(N2CC2)nc(N2CC2)n1
- T/C [1]: 100 % of control and 105 % of control
- T/C (dose: 0.25 mg/kg/injection, schedule: Q01DX010 (ip), vehicle: saline): 110 % of control and 115 % of control
- T/C (dose: 0.5 mg/kg/injection, schedule: Q01DX010 (ip), vehicle: saline): 120 % of control
- T/C [14]: 95 % of control
- T/C (dose: 1.5 mg/kg/injection, schedule: Q01DX010 (ip), vehicle: saline): 110 % of control

SMILES: S=P(N1CC1)(N1CC1)N1CC1
- T/C [14]: 115 % of control and 120 % of control
- T/C [4]: 120 % of control
- T/C [5]: 160 % of control
- T/C [6]: 90 % of control and 110 % of control

SMILES: CC(CCC(C)OS(C)(=O)=O)OS(C)(=O)=O (configuration not stated)
- T/C [4]: 100 % of control
- T/C [5]: 104 % of control
- T/C [6]: 104 % of control
- T/C [7]: 116 % of control
